Results: ChEMBL document CHEMBL4364269, “Identification of a novel orally bioavailable ERK5 inhibitor with selectivity over p38α and BRD4” (Eur J Med Chem, 2019)

Assays:
[1] = target: Bromodomain-containing protein 4 (Homo sapiens, UniProt O60885); assay: Inhibition of BRD4 (unknown origin)
A2780 [2] = assay: Antitumor activity against human A2780 cells xenografted in CD1 mouse assessed as reduction in tumor volume at 50 mg/kg, ip administered bid for 10 days started on day 7 post-tumor inoculation and measured three times per week by digital caliper analysis; format: functional
[3] = Toxicity in CD1 mouse xenografted with human A2780 cells assessed as body weight at 50 mg/kg, ip administered bid for 10 days (reference value: 96%); format: organism-based; details: in vivo, 240 h
[4] = target: Mitogen-activated protein kinase 14 (Homo sapiens, UniProt Q16539); assay: Inhibition of recombinant N-terminal GST-tagged full length human p38alpha expressed in Escherichia coli cells assessed as substrate phosphorylation using Ulight-MBP peptide as substrate incubated for 1 hr by LANCE assay
PC-3 = assay: Growth inhibition of human PC3 cells; format: functional
[5] = Stability in human liver microsomes assessed as intrinsic clearance per mg protein; format: ADME, Microsome; details: read-out: CLH
[6] = Stability in mouse liver microsomes assessed as intrinsic clearance per mg protein; format: ADME, Microsome; details: read-out: CLH
[7] = Permeability across basolateral to apical side in human Caco2 cells; format: ADME, cell-based; details: Caco-2, read-out: permeability
[8] = Solubility of compound by turbidometry; format: physicochemical
[9] = Fraction unbound in plasma (unknown origin); format: ADME, cell-free
Cytochrome P450 2C19 = Cytochrome P450 2C19 (Homo sapiens, UniProt P33261); assay: Inhibition of CYP2C19 (unknown origin); format: ADME
Cytochrome P450 2C9 = Cytochrome P450 2C9 (Homo sapiens, UniProt P11712); assay: Inhibition of CYP2C9 (unknown origin); format: ADME
Cytochrome P450 2D6 = Cytochrome P450 2D6 (Homo sapiens, UniProt P10635); assay: Inhibition of CYP2D6 (unknown origin); format: ADME
Cytochrome P450 3A4 = Cytochrome P450 3A4 (Homo sapiens, UniProt P08684); assay: Inhibition of CYP3A4 (unknown origin); format: ADME
[10] = AUC in CD1 mouse at 10 mg/kg, po measured upto 24 hrs by LCMS analysis; format: ADME, organism-based; design: dose 10 mg/kg, time < 24 hr, route oral; details: in vivo
[11] = Cmax in CD1 mouse at 10 mg/kg, po measured upto 24 hrs by LCMS analysis; format: ADME, organism-based; design: dose 10 mg/kg, route oral; details: in vivo
[12] = Tmax in CD1 mouse at 10 mg/kg, po measured upto 24 hrs by LCMS analysis; format: ADME, organism-based; details: in vivo
[13] = Oral bioavailability in CD1 mouse at 10 mg/kg measured upto 24 hrs by LCMS analysis; format: ADME, organism-based; details: in vivo
[14] = AUC in CD1 mouse at 10 mg/kg, iv measured upto 24 hrs by LCMS analysis; format: ADME, organism-based; design: time < 24 hr, dose 10 mg/kg, route intravenous; details: in vivo
[15] = Cmax in CD1 mouse at 10 mg/kg, iv measured upto 24 hrs by LCMS analysis; format: ADME, organism-based; design: dose 10 mg/kg, route intravenous; details: in vivo
[16] = Volume of distribution in CD1 mouse at 10 mg/kg, iv measured upto 24 hrs by LCMS analysis; format: ADME, organism-based; details: in vivo
[17] = Clearance in CD1 mouse at 10 mg/kg, iv measured upto 24 hrs by LCMS analysis; format: ADME, organism-based; details: in vivo
[18] = Half life in CD1 mouse at 10 mg/kg, iv measured upto 24 hrs by LCMS analysis; format: ADME, organism-based; details: in vivo
A2780 [19] = assay: Antitumor activity against human A2780 cells xenografted in CD1 mouse assessed as reduction in tumor volume at 100 mg/kg, po administered bid for 10 days started on day 7 post-tumor inoculation and measured three times per week by digital caliper analysis; format: functional
[20] = Toxicity in CD1 mouse xenografted with human A2780 cells assessed as body weight at 100 mg/kg, po administered bid for 10 days (reference value: 96%); format: organism-based; details: in vivo, 240 h
[21] = target: T1, Mitogen-activated protein kinase 7 (Homo sapiens, UniProt Q13164); assay: Inhibition of ERK5 (unknown origin) using R7129 as substrate incubated for 2 hrs by IMAP fluorescence polarization analysis
[22] = target: T1, Mitogen-activated protein kinase 7; assay: Inhibition of HA-tagged ERK5 (unknown origin) coexpressed with mutationally activated EGFP-MEK5D and Gal4-MEF2D in HEK293 cells assessed as reduction in MEF2 transcription by measuring luciferase signal after 20 hrs by luciferase reporter gene assay; format: cell-based
[23] = target: T1, Mitogen-activated protein kinase 7; assay: Inhibition of recombinant N-terminal His-tagged human ERK5 (2 to 409 residues) co-expressed with GST-tagged human truncated MEK5DD lacking N-terminal 11 residues (13 to 448 residues) in Sf9 insect cells assessed as substrate peptide phosphorylation using (LVEPLTPSGEAPNQ(K-5FAM)-COOH as substrate incubated for 2 hrs by IMAP fluorescence polarisation assay

Sequence of Mitogen-activated protein kinase 14 (Q16539 whole entry): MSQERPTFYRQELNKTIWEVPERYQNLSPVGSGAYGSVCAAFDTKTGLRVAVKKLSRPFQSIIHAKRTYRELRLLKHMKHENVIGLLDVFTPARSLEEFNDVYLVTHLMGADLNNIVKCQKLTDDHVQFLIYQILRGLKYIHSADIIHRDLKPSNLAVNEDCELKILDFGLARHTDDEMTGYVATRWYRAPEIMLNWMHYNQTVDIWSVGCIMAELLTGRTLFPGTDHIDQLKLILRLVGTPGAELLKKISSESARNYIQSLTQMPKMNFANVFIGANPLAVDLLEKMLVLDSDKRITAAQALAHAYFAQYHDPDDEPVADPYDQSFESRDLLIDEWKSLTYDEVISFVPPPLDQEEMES
T1 sequence (Q13164 whole entry, the tested form may be a part): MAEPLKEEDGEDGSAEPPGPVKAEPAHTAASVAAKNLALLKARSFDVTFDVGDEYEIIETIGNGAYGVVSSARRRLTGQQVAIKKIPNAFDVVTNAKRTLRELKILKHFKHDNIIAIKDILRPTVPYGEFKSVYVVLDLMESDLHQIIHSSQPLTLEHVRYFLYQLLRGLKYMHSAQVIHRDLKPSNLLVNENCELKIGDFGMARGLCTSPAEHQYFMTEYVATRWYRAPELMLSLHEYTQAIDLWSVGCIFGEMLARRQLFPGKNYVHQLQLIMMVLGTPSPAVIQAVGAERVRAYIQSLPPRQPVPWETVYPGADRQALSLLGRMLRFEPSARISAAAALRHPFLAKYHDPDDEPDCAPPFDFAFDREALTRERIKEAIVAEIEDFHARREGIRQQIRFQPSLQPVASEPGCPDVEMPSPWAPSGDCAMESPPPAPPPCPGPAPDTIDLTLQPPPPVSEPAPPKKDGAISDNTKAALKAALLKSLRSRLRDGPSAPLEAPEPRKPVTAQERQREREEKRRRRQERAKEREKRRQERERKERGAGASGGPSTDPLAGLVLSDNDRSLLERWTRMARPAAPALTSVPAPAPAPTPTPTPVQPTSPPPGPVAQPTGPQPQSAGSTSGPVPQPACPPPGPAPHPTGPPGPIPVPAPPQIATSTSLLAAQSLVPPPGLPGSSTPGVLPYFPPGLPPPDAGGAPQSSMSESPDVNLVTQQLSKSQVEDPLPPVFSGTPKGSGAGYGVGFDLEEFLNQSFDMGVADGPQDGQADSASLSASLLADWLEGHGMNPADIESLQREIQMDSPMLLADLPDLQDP
Sequence of Cytochrome P450 2C19 (P33261 whole entry): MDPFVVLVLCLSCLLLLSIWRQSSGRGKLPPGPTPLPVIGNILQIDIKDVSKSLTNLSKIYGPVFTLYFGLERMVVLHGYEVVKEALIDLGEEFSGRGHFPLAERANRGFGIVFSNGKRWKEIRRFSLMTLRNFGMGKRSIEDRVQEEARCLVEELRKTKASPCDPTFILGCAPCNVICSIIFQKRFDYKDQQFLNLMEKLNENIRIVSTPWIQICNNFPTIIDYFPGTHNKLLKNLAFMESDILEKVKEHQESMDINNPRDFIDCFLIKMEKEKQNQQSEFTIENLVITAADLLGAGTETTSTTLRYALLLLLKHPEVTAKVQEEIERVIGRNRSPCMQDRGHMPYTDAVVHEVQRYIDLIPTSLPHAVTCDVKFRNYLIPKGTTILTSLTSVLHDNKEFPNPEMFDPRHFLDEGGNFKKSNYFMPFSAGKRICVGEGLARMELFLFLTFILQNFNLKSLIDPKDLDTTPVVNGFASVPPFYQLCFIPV
Sequence of Cytochrome P450 2D6 (P10635 whole entry): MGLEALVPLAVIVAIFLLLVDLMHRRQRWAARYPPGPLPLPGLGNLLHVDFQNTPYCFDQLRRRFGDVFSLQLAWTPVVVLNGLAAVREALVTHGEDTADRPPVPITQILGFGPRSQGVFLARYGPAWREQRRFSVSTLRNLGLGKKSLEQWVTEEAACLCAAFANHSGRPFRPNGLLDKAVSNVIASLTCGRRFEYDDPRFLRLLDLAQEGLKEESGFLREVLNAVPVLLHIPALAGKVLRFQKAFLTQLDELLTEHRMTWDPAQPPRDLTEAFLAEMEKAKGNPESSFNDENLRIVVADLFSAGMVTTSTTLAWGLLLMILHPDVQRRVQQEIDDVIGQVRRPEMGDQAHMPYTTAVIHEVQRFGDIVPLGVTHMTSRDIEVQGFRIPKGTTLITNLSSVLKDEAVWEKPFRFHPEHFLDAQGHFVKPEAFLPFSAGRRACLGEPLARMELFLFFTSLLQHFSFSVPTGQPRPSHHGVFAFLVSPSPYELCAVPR
Sequence of Cytochrome P450 2C9 (P11712 whole entry): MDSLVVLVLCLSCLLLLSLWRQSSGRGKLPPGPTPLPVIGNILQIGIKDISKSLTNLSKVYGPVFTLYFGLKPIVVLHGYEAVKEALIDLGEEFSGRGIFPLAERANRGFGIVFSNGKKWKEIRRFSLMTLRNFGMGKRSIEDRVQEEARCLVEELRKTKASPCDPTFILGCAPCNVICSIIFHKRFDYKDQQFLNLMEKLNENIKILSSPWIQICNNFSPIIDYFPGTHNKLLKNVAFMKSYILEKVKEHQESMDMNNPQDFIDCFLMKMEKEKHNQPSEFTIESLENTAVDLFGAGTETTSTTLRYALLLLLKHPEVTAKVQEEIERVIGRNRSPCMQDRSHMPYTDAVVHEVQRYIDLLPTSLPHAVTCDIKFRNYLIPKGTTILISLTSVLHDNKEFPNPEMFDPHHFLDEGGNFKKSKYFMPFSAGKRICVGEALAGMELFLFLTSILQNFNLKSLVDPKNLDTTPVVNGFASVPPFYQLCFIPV
Sequence of Cytochrome P450 3A4 (P08684 whole entry): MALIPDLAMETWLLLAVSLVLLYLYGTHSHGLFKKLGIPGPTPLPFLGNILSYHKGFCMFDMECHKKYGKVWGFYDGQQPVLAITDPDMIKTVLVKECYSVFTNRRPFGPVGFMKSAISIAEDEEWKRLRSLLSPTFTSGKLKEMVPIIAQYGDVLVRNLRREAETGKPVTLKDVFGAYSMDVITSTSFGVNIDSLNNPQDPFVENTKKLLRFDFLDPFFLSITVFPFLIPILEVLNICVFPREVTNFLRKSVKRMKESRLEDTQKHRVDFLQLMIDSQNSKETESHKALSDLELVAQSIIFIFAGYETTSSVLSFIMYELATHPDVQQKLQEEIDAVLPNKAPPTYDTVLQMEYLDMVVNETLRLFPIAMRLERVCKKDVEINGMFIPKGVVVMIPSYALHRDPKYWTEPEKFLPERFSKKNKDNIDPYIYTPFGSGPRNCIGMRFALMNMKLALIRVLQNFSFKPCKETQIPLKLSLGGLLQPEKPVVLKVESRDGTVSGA

CCOc1cc(N2CCC(O)CC2)ccc1Nc1ncc2c(n1)N(C)c1ccccc1C(=O)N2C
Kd [1]: 1.6 µM | inhibition in vivo at 50 mg/kg (A2780 [2]): 62% | Activity [3]: 98%

O=C(Nc1cccnc1)c1cc(C(=O)c2c(F)cccc2Br)c[nH]1
IC50 [4]: > 120 µM | GI50 (PC-3): 44 µM | microsomal CLint [5]: < 5 µL/min/mg | microsomal CLint [6]: 26 µL/min/mg | Papp B→A [7]: > 10 ×10⁻⁶ cm/s | solubility kinetic [8]: > 100 µM | fraction unbound [9]: 0.06 | IC50 (Cytochrome P450 2C19): > 5 µM | IC50 (Cytochrome P450 2C9): > 5 µM | IC50 (Cytochrome P450 2D6): > 5 µM | IC50 (Cytochrome P450 3A4): > 5 µM | AUC at 24 h [10]: 4230 ng·h/mL | Cmax [11]: 6 µM | Tmax [12]: 15 min | bioavailability [13]: 68% | AUC at 24 h [14]: 6200 ng·h/mL | Cmax [15]: 25 µM | Vd [16]: 1.2 L/kg | clearance [17]: 27 mL/min/kg | half-life [18]: 38 min | inhibition in vivo at 100 mg/kg (A2780 [19]): 57% | Activity [20]: 99%

O=C(NCc1ccncc1)c1cc(C(=O)c2cccc(Cl)c2Cl)c[nH]1
IC50 [21]: 2 µM

O=C(Nc1ccncc1)c1cc(C(=O)c2c(F)cccc2F)c[nH]1
IC50 [4]: 100 µM | IC50 [22]: 8 µM

O=C(NCc1ccncc1)c1cc(C(=O)c2c(F)cccc2F)c[nH]1
IC50 [23]: 30 µM | IC50 [4]: 0.58 µM

O=C(NCc1ccncc1)c1cc(C(=O)c2c(Cl)cccc2Cl)c[nH]1
IC50 [23]: 4.4 µM | IC50 [4]: 12.3 µM

O=C(Nc1cccnc1)c1cc(C(=O)c2c(F)cccc2Cl)c[nH]1
IC50 [4]: 93.2 µM

O=C(NCc1ccncc1)c1cc(C(=O)c2cccc(F)c2F)c[nH]1
IC50 [23]: 7 µM | IC50 [4]: 2.4 µM

O=C(NCc1ccncc1)c1cc(C(=O)c2ccccc2Cl)c[nH]1
IC50 [23]: 15 µM

O=C(Nc1cccnc1)c1cc(C(=O)c2c(F)cccc2F)c[nH]1
IC50 [23]: 1.1 µM | IC50 [4]: 35 µM

O=C(c1ccc(Cl)cc1)c1c[nH]c(C(=O)NCc2ccncc2)c1
IC50 [23]: > 120 µM

O=C(NCc1ccncc1)c1cc(C(=O)c2ccccc2F)c[nH]1
IC50 [23]: 5.9 µM | IC50 [4]: 0.36 µM

O=C(Nc1ccncc1)c1cc(C(=O)c2c(F)cccc2Br)c[nH]1
IC50 [23]: 0.7 µM | IC50 [4]: > 120 µM | IC50 [22]: 4 µM

O=C(Nc1ccncc1)c1cc(C(=O)c2c(F)cccc2Cl)c[nH]1
IC50 [4]: > 120 µM | IC50 [22]: 2.3 µM

O=C(c1ccc(F)cc1)c1c[nH]c(C(=O)NCc2ccncc2)c1
IC50 [23]: > 120 µM

O=C(c1ccccc1)c1c[nH]c(C(=O)NCc2ccncc2)c1
IC50 [23]: 40 µM

O=C(c1cccc(Cl)c1)c1c[nH]c(C(=O)NCc2ccncc2)c1
IC50 [23]: 6.3 µM | IC50 [4]: 6.5 µM

O=C(c1cccc(F)c1)c1c[nH]c(C(=O)NCc2ccncc2)c1
IC50 [23]: > 120 µM
